In US8329222B1, “Magnetic nanomedicine for tumor suppression and therapy” (priority 2011, dated 2012):

Experiments:
[1] = system: bladder tumor cells MGH-U1; assay: Fluorescence microscopy of cell entry after 4 hours; format: cell-based, human; settings: reacted 4 hours, fluorescent microscope photos
Description: Add 2 mL of a mixture liquid containing 20,000 bladder tumor cells MGH-U1 to a 3.5 cm diameter cultivation plate. Place the cultivation plate in a humidified incubator having 5% CO2 in a temperature of 37° C. to enable adherent growth of the cells. Twenty-four hours later, add to the cultivation plate, 100 μL of RPMI1640 medium containing EPI, EPI/SPAnH/MNPs magnetic nanomedicine, DOX, and DOX/SPAnH/MNPs magnetic nanomedicine to react for 4 hours, then flush it with 1 mL of Hanks' balance slat solution (HBSS).

[2] = system: human bladder tumor cells (MGH-U1); assay: XTT growth suppression test on bladder tumor cells; format: cell-based; settings: cultivated with MGH-U1 for 27 hours, no magnetic field, read-out: cell growth inhibit efficiency
Description: Cell Cultivation: Place 150 μL of a mixture liquid containing 10,000 human bladder tumor cells (MGH-U1) into each well of 96-well culture plate. Place the culture plate in a humidified incubator in a temperature of 37° C. and with 5% CO2 to enable adherent growth of the cells.
Agent Addition: 24 hours later, mix separately MNPs (concentration 600 μg/mL) EPI (concentrations 2, 5, 10 μM), and EPI/SPAnH/MNPs magnetic nanomedicine (concentrations 2, 5, 10 μM) with a RPMI1640 medium to form mixed solutions. Add respectively 50 μL of the mixed solutions to well, and then place the culture plate in a humidified incubator having 5% CO2 for 2, 4, 6, 10, and 27 hours.
Cell Counting: Remove RPMI1640 medium in the well and add 120 μL of an XTT reaction liquid (2,3-Bis(2-methoxy-4-nitro-5-sulfophenyl)-2H-tetrazolium-5-carboxanilide inner salt) to the wells. Use an ELISA reader (BIO-TEK, model EL 808) to measure the OD (Optical Density) values of each cell at a wavelength of 490 nm to determine the toxicity of SPAnH/MNPs magnetic nanocomposite and the cell-killing rate of EPI/SPAnH/MNPs magnetic nanomedicines to the bladder tumor cells.
Cell Cultivation: Place 150 μL of a mixture liquid containing 10,000 human bladder tumor cells (MGH-U1) into each well of 96-well culture plate. […]

COc1cccc2c1C(=O)c1c(O)c3c(c(O)c1C2=O)C[C@@](O)(C(=O)CO)C[C@@H]3O[C@H]1C[C@H](N)[C@H](O)[C@H](C)O1 [DOX, Doxorubicin]
entry into bladder tumor cell MGH-U1 [1]: do enter into the bladder tumor cell MGH-U1
inhibition at 10 µM [2]: 66.2%

COc1cccc2c1C(=O)c1c(O)c3c(c(O)c1C2=O)C[C@@](O)(C(=O)CO)C[C@@H]3O[C@H]1C[C@H](N)[C@@H](O)[C@H](C)O1 [EPI, Epirubicin]
entry into bladder tumor cell MGH-U1 [1]: do enter into the bladder tumor cell MGH-U1
inhibition at 10 µM [2]: 64.3%
